The text below walks through data of ChEMBL document CHEMBL1201862, “PubChem BioAssay data set” (2004).

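Tested at 5 concentrations; 48 h exposure; 96-well plates; endpoints linearly interpolated, else capped at highest concentration. GI50: concentration for 50% inhibition of growth.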 Calls of active or inactive are those of the source. Cut-off read from the data, not from the text of the source: active = GI50 up to about 1.1 µM and inactive = higher. Bounds are passed on as bounds.

Test systems include NCI/ADR-RES; OVCAR-5; SR; MDA-MB-231; CAKI-1; NCI-H522; SN12C; UACC-62; MCF7; HCT-15; UACC-257; DU-145; MOLT-4; Hs-578T; UO-31; SK-MEL-5; HOP-92; A549; PC-3; HCC 2998.
What all share (test): growth of human tumour cells (NCI), 48 h

`CCOC(=O)c1c(N2CCOCC2)[nH]c(=O)c(C(c2cccs2)c2c(O)c(C(=O)OCC)c(N3CCOCC3)[nH]c2=O)c1O`: the GI50 in the assay on NCI/ADR-RES, in the assay with OVCAR-5, in the assay on SR, in the assay on MDA-MB-231, in the assay with CAKI-1 and with NCI-H522 was > 100 µM (inactive) throughout. Further, the GI50 with SN12C is > 100 µM (inactive); in the assay on UACC-62 it was > 100 µM (inactive); in the assay with MCF7, > 100 µM (inactive); in the assay with HCT-15, greater than 100 µM; with UACC-257 it was > 100 µM (inactive); in the assay on DU-145, > 100 µM (inactive). Further, the GI50 in the assay with MOLT-4, in the assay with Hs-578T, with UO-31, in the assay on SK-MEL-5, with HOP-92 and in the assay on A549 was > 100 µM (inactive) throughout. In addition, the GI50 in the assay on PC-3 and in the assay on HCC 2998 was > 100 µM (inactive) in each case.

In the case of `O=c1[nH]c2cc([N+](=O)[O-])c(Nc3c4ccccc4nc4ccccc34)c([N+](=O)[O-])c2[nH]1`, the GI50 was 2.41 µM (inactive) in the assay on NCI/ADR-RES; 2.4 µM (inactive) with OVCAR-5; 1.74 µM (inactive) with SR; 3.21 µM (inactive) in the assay on MDA-MB-231; 2.19 µM (inactive) with CAKI-1; 1.46 µM (inactive) in the assay on NCI-H522. Also, the GI50 with SN12C was 2.17 µM (inactive); in the assay with UACC-62, 1.6 µM (inactive); in the assay with MCF7, 2.59 µM (inactive); with HCT-15 it was 2.58 µM; with UACC-257, 4.03 µM (inactive); with DU-145, 2.29 µM (inactive). Also, the GI50 with MOLT-4 is 0.938 µM (active); with Hs-578T it was 7.18 µM (inactive); in the assay on UO-31 it was 2.09 µM (inactive); in the assay on SK-MEL-5 it was 2.45 µM (inactive); with HOP-92, 2.48 µM (inactive); with A549 it was 2.69 µM (inactive). Also, the GI50 was 3.32 µM (inactive) with PC-3 and 1.73 µM (inactive) in the assay on HCC 2998.

With `COC(=O)/C=C\C(C#N)(C#N)/N=C/c1sccc1C`, the GI50 in the assay with NCI/ADR-RES was 11.8 µM (inactive); in the assay with OVCAR-5 it was 5.26 µM (inactive); with SR, 2.36 µM (inactive); in the assay with MDA-MB-231, 0.589 µM (active); in the assay on CAKI-1, 1.93 µM (inactive); in the assay on NCI-H522, 0.268 µM (active). Besides, the GI50 is 8.59 µM (inactive) in the assay on SN12C; 6.62 µM (inactive) in the assay on UACC-62; 1.56 µM (inactive) with MCF7; 1.96 µM in the assay with HCT-15; 11.1 µM (inactive) in the assay with UACC-257; 7.53 µM (inactive) in the assay with DU-145. Also, the GI50 in the assay with MOLT-4 is 1.2 µM (inactive); with Hs-578T, 7.78 µM (inactive); in the assay with UO-31, 1.77 µM (inactive); in the assay on SK-MEL-5, 1.55 µM (inactive); in the assay with HOP-92, 1.91 µM (inactive); in the assay with A549, 15 µM (inactive). In addition, the GI50 in the assay with PC-3 is 7.6 µM (inactive); in the assay with HCC 2998, 15.2 µM (inactive).

As for `COC(=O)/C(=N/NC(N)=O)C(C(=O)C(=O)Nc1ccc(C)cc1)c1nc2ccc(C(=O)c3ccccc3)cc2nc1O` (stereo not given), the GI50 in the assay with NCI/ADR-RES is 39.3 µM (inactive); with OVCAR-5, > 100 µM (inactive); in the assay with SR, 1.53 µM (inactive); in the assay with MDA-MB-231, > 100 µM (inactive); in the assay on CAKI-1, 88.9 µM (inactive); in the assay on NCI-H522, 50.5 µM (inactive). In addition, the GI50 was > 100 µM (inactive) in the assay with SN12C; 51.4 µM (inactive) with UACC-62; 91.4 µM (inactive) in the assay on MCF7; greater than 100 µM with HCT-15; > 100 µM (inactive) with UACC-257; > 100 µM (inactive) in the assay with DU-145. Further, the GI50 in the assay on MOLT-4 is 50.4 µM (inactive); in the assay on Hs-578T it was 67 µM (inactive); in the assay on UO-31, 30.5 µM (inactive); in the assay on SK-MEL-5 it was > 100 µM (inactive); in the assay with HOP-92, 30.3 µM (inactive); in the assay on A549, > 100 µM (inactive). In addition, the GI50 was > 100 µM (inactive) with PC-3 and 34.2 µM (inactive) with HCC 2998.

Take `CC(=O)NNc1nc(C)c(C(/C=C/c2ccccc2O)=N/N=C(N)N)s1`: the GI50 with NCI/ADR-RES, in the assay with OVCAR-5, with SR, in the assay on MDA-MB-231, in the assay with CAKI-1 and in the assay with NCI-H522 was > 100 µM (inactive) each time. The GI50 with SN12C is > 100 µM (inactive); with UACC-62, > 100 µM (inactive); with MCF7, > 100 µM (inactive); in the assay on HCT-15, greater than 100 µM; in the assay on UACC-257, > 100 µM (inactive); in the assay on DU-145, > 100 µM (inactive). Moreover, the GI50 in the assay with MOLT-4, with Hs-578T, in the assay with UO-31, in the assay on SK-MEL-5, with HOP-92 and with A549 was > 100 µM (inactive) in each case. The GI50 in the assay on PC-3 and in the assay with HCC 2998 was > 100 µM (inactive) throughout.

With `COc1cc(C)cc2c1C(=O)C(Br)=CC2=O`, the GI50 with NCI/ADR-RES was 27.3 µM (inactive); in the assay with OVCAR-5 it was 19.8 µM (inactive); in the assay with SR it was 4.57 µM (inactive); with MDA-MB-231 it was 14.7 µM (inactive); in the assay on CAKI-1, 1.63 µM (inactive); in the assay with NCI-H522 it was 2.03 µM (inactive). Besides, the GI50 was 15.7 µM (inactive) in the assay with SN12C; 9.71 µM (inactive) in the assay on UACC-62; 4.48 µM (inactive) with MCF7; 17.4 µM in the assay on HCT-15; 13.7 µM (inactive) with UACC-257; 18.3 µM (inactive) with DU-145. Besides, the GI50 was 2.39 µM (inactive) in the assay on MOLT-4; 29.4 µM (inactive) in the assay on Hs-578T; 5.38 µM (inactive) in the assay with UO-31; 12.6 µM (inactive) with SK-MEL-5; 3.09 µM (inactive) in the assay on HOP-92; 21.2 µM (inactive) in the assay on A549. Further, the GI50 with PC-3 was 17 µM (inactive); with HCC 2998, 19.5 µM (inactive).

For the compound `Cn1cc2c(=O)n3ncn(-c4ccc(Br)cc4)c3nc2n1`, the GI50 in the assay on NCI/ADR-RES, in the assay on OVCAR-5, with SR, with MDA-MB-231, with CAKI-1 and with NCI-H522 was > 100 µM (inactive) throughout. In addition, the GI50 with SN12C was > 100 µM (inactive); with UACC-62 it was > 100 µM (inactive); in the assay on MCF7 it was > 100 µM (inactive); in the assay on HCT-15, greater than 100 µM; in the assay with UACC-257 it was > 100 µM (inactive); in the assay with DU-145, > 100 µM (inactive). The GI50 is > 100 µM (inactive) with MOLT-4; > 100 µM (inactive) in the assay on Hs-578T; > 100 µM (inactive) with UO-31; 87.9 µM (inactive) with SK-MEL-5; > 100 µM (inactive) in the assay on HOP-92; > 100 µM (inactive) with A549. The GI50 in the assay with PC-3 and in the assay on HCC 2998 was > 100 µM (inactive) each time.

On to `Cc1ccc([C@H]2CC(=O)C[C@H](c3ccc(C)cc3)C23C(=O)c2ccccc2C3=O)cc1`, for which the GI50 with NCI/ADR-RES was 10.1 µM (inactive); in the assay with OVCAR-5 it was > 100 µM (inactive); in the assay on SR it was 13.2 µM (inactive); with MDA-MB-231 it was 54.7 µM (inactive); in the assay on CAKI-1 it was 68.2 µM (inactive); with NCI-H522 it was 3.23 µM (inactive). Further, the GI50 is 48.4 µM (inactive) in the assay on SN12C; 37.7 µM (inactive) with UACC-62; 17 µM (inactive) with MCF7; 34.8 µM in the assay with HCT-15; 15.4 µM (inactive) in the assay on UACC-257; > 100 µM (inactive) with DU-145. The GI50 in the assay with MOLT-4 was 27 µM (inactive); in the assay on Hs-578T it was 19.9 µM (inactive); with UO-31 it was > 100 µM (inactive); in the assay on SK-MEL-5, 34.4 µM (inactive); in the assay with HOP-92, 13.6 µM (inactive); with A549, 43.2 µM (inactive). In addition, the GI50 in the assay with PC-3 was 14.9 µM (inactive); with HCC 2998 it was 57.3 µM (inactive).

As to `COC(=O)C1(C#N)C(C)(C)N=C(c2ccccc2)C12CCCCC2` (stereo not given), the GI50 in the assay on NCI/ADR-RES is > 100 µM (inactive); with OVCAR-5, > 100 µM (inactive); in the assay on SR, 14.7 µM (inactive); in the assay on MDA-MB-231, > 100 µM (inactive); with CAKI-1, > 100 µM (inactive); with NCI-H522, > 100 µM (inactive). Further, the GI50 with SN12C is > 100 µM (inactive); in the assay with UACC-62 it was 76.9 µM (inactive); in the assay with MCF7 it was > 100 µM (inactive); in the assay with HCT-15 it was greater than 100 µM; in the assay with UACC-257, > 100 µM (inactive); in the assay with DU-145, > 100 µM (inactive). Moreover, the GI50 in the assay with MOLT-4 was 45.9 µM (inactive); in the assay on Hs-578T it was > 100 µM (inactive); in the assay with UO-31, 75.7 µM (inactive); in the assay with SK-MEL-5, > 100 µM (inactive); with HOP-92 it was 53.2 µM (inactive); in the assay with A549, 85.7 µM (inactive). In addition, the GI50 was 58.7 µM (inactive) with PC-3 and > 100 µM (inactive) with HCC 2998.

In the case of `COc1cc2cc(C(=O)N3CC(COS(C)(=O)=O)c4c3cc(N)c3ccccc43)[nH]c2c(OC)c1OC` (stereo not given), the GI50 with NCI/ADR-RES was 0.0123 µM (active); with OVCAR-5, 0.021 µM (active); in the assay with SR, < 0.01 µM (active); in the assay on MDA-MB-231, < 0.01 µM (active); with CAKI-1, 0.0211 µM (active); in the assay on NCI-H522 it was 0.0146 µM (active). In addition, the GI50 is 0.0221 µM (active) in the assay on SN12C; 0.0146 µM (active) in the assay with UACC-62; < 0.0122 µM (active) in the assay with MCF7; less than 0.0206 µM with HCT-15; 0.0209 µM (active) with UACC-257; 0.0154 µM (active) with DU-145. Also, the GI50 in the assay on MOLT-4 is 0.0149 µM (active); in the assay with Hs-578T it was 0.252 µM (active); in the assay with UO-31, 0.0141 µM (active); with SK-MEL-5 it was < 0.01 µM (active); in the assay on HOP-92, < 0.0266 µM (active); with A549 it was 0.0146 µM (active). In addition, the figures for the GI50 in the assay on PC-3 and in the assay on HCC 2998 were 0.0422 µM (active) and 0.0148 µM (active), respectively.
